# Calls of active or inactive are those of the source. No cut-off for these calls is given here.
# Assays:
# Rattus norvegicus [1] = assay: In vivo inhibition of beta adrenoceptor in Wistar rat assessed as reduction in isoprenaline-induced tachycardia at 1 mg/kg, iv administered as single dose 10 mins prior to isoprenaline injection; assay type: functional, organism-based
# Rattus norvegicus [2] = assay: Antiarrhythmic activity in Wistar rat assessed as inhibition of adrenaline-induced premature ventricular extrasystoles administered iv 15 mins prior to adrenaline challenge; assay type: functional
# Blood [3] = assay: Anti-aggregative activity in Wistar rat whole blood assessed as inhibition of collagen-induced aggregation up to 100 uM preincubated for 3 mins followed by collagen induction measured for 6 mins; assay type: functional, tissue-based
# Blood [4] = assay: Anti-aggregative activity in Wistar rat whole blood assessed as inhibition of collagen/adrenaline-induced aggregation up to 100 uM preincubated for 3 mins followed by collagen induction measured for 6 mins; assay type: functional, tissue-based
# Rattus norvegicus [5] = species on record: Rattus norvegicus; assay: (§1) Inhibition of voltage gated calcium channel in Wistar rat aorta assessed as relaxation of KCl-precontracted aortic rings by measuring reduction in calcium entry in presence of phentolamine
# [6] = as §1
# Rattus norvegicus [7] = assay: Cardiotoxicity in Wistar rat assessed as effect on PQ interval time at 5 mg/kg, iv measured after 5 mins (reference value: 52 to 57 ms); assay type: toxicity, organism-based; conditions: in vivo
# Rattus norvegicus [8] = assay: Hypotensive activity in normotensive Wistar rat assessed as diastolic blood pressure at 5 mg/kg, iv measured after 20 mins (reference value: 86.5 to 119.4 mmHg); assay type: functional
# [9] = molecular target: Adrenergic receptor alpha-1 (Rattus norvegicus) (UniProt P15823+P23944+P43140); assay: Displacement of [3H][…]prazosin from adrenergic alpha1 receptor in Wistar rat cortex at 10^-5 M incubated for 30 mins by microbeta liquid scintillation counting analysis
# Rattus norvegicus [10] = assay: Hypotensive activity in normotensive Wistar rat assessed as systolic blood pressure at 5 mg/kg, iv measured after 20 mins (reference value: 119.2 to 148.6 mmHg); assay type: functional
# [11] = molecular target: Beta-2 adrenergic receptor (Cavia porcellus, UniProt Q8K4Z4); assay: Antagonist activity at adrenergic beta2 receptor in isolated guinea pig trachea assessed as inhibition of isoprenaline-induced bronchodilation incubated for 20 mins; assay type: functional; conditions: read-out: pA2 (converted)
# Rattus norvegicus [12] = assay: Cardiotoxicity in Wistar rat assessed as effect on QRS interval time at 5 mg/kg, iv measured after 1 min (reference value: 16.7 to 20.7 ms); assay type: toxicity, organism-based; conditions: in vivo
# Rattus norvegicus [13] = assay: Cardiotoxicity in Wistar rat assessed as effect on QRS interval time at 5 mg/kg, iv measured after 5 mins (reference value: 16.7 to 20.7 ms); assay type: toxicity, organism-based; conditions: in vivo
# Rattus norvegicus [14] = assay: Hypotensive activity in normotensive Wistar rat assessed as systolic blood pressure at 5 mg/kg, iv measured after 60 mins (reference value: 119.2 to 148.6 mmHg); assay type: functional
# Rattus norvegicus [15] = assay: Cardiotoxicity in Wistar rat assessed as effect on QRS interval time at 5 mg/kg, iv measured after 15 mins (reference value: 16.7 to 20.7 ms); assay type: toxicity, organism-based; conditions: in vivo, 0.25 h
# Rattus norvegicus [16] = assay: In vivo inhibition of beta adrenoceptor in Wistar rat assessed as reduction in isoprenaline-induced tachycardia at 5 mg/kg, iv administered as single dose 10 mins prior to isoprenaline injection; assay type: functional, organism-based
# Rattus norvegicus [17] = assay: Cardiotoxicity in Wistar rat assessed as effect on PQ interval time at 5 mg/kg, iv measured after 15 mins (reference value: 52 to 57 ms); assay type: toxicity, organism-based; conditions: in vivo, 0.25 h
# Rattus norvegicus [18] = assay: Hypotensive activity in normotensive Wistar rat assessed as systolic blood pressure at 5 mg/kg, iv measured after 30 mins (reference value: 119.2 to 148.6 mmHg); assay type: functional
# Rattus norvegicus [19] = assay: Cardiotoxicity in Wistar rat assessed as effect on QT interval time at 5 mg/kg, iv measured after 15 mins (reference value: 57.7 to 61 ms); assay type: toxicity, organism-based; conditions: in vivo, 0.25 h
# Rattus norvegicus [20] = assay: Cardiotoxicity in Wistar rat assessed as effect on heart rate at 5 mg/kg, iv measured after 5 mins (reference value: 323 to 374.5 bpm); assay type: toxicity, organism-based; conditions: in vivo
# [21] = molecular target: Beta-1 adrenergic receptor (Rattus norvegicus, UniProt P18090); assay: Displacement of [3H]-CGP-12177 from adrenergic beta1 receptor in Wistar rat cortex incubated for 60 mins by microbeta liquid scintillation counting analysis
# Rattus norvegicus [22] = assay: Cardiotoxicity in Wistar rat assessed as effect on QTC interval time at 5 mg/kg, iv measured after 1 min (reference value: 136.7 to 146.2 ms); assay type: toxicity, organism-based; conditions: in vivo
# Rattus norvegicus [23] = assay: Hypotensive activity in normotensive Wistar rat assessed as diastolic blood pressure at 5 mg/kg, iv measured after 60 mins (reference value: 86.5 to 119.4 mmHg); assay type: functional
# Rattus norvegicus [24] = assay: Hypotensive activity in normotensive Wistar rat assessed as diastolic blood pressure at 5 mg/kg, iv measured after 5 mins (reference value: 86.5 to 119.4 mmHg); assay type: functional
# Rattus norvegicus [25] = assay: Cardiotoxicity in Wistar rat assessed as effect on heart rate at 5 mg/kg, iv measured after 1 min (reference value: 323 to 374.5 bpm); assay type: toxicity, organism-based; conditions: in vivo
# Rattus norvegicus [26] = assay: Cardiotoxicity in Wistar rat assessed as effect on QT interval time at 5 mg/kg, iv measured after 5 mins (reference value: 57.7 to 61 ms); assay type: toxicity, organism-based; conditions: in vivo
# Rattus norvegicus [27] = assay: Hypotensive activity in normotensive Wistar rat assessed as systolic blood pressure at 5 mg/kg, iv measured after 5 mins (reference value: 119.2 to 148.6 mmHg); assay type: functional
# Rattus norvegicus [28] = assay: Hypotensive activity in normotensive Wistar rat assessed as systolic blood pressure at 5 mg/kg, iv measured after 10 mins (reference value: 119.2 to 148.6 mmHg); assay type: functional
# Rattus norvegicus [29] = assay: Hypotensive activity in normotensive Wistar rat assessed as diastolic blood pressure at 5 mg/kg, iv measured after 30 mins (reference value: 86.5 to 119.4 mmHg); assay type: functional
# Rattus norvegicus [30] = assay: Cardiotoxicity in Wistar rat assessed as effect on PQ interval time at 5 mg/kg, iv measured after 1 min (reference value: 52 to 57 ms); assay type: toxicity, organism-based; conditions: in vivo
# Rattus norvegicus [31] = assay: Hypotensive activity in normotensive Wistar rat assessed as reduction in systolic blood pressure administered iv measured after 60 mins; assay type: functional
# Rattus norvegicus [32] = assay: Cardiotoxicity in Wistar rat assessed as effect on QT interval time at 5 mg/kg, iv measured after 1 min (reference value: 57.7 to 61 ms); assay type: toxicity, organism-based; conditions: in vivo
# Blood [33] = assay: Anti-aggregative activity in Wistar rat whole blood assessed as inhibition of collagen-induced aggregation preincubated for 3 mins followed by collagen induction measured for 6 mins; assay type: functional, tissue-based
# Rattus norvegicus [34] = assay: Cardiotoxicity in Wistar rat assessed as effect on QTC interval time at 5 mg/kg, iv measured after 5 mins (reference value: 136.7 to 146.2 ms); assay type: toxicity, organism-based; conditions: in vivo
# Rattus norvegicus [35] = assay: Cardiotoxicity in Wistar rat assessed as effect on heart rate at 5 mg/kg, iv measured after 15 mins (reference value: 323 to 374.5 bpm); assay type: toxicity, organism-based; conditions: in vivo, 0.25 h
# Rattus norvegicus [36] = assay: Hypotensive activity in normotensive Wistar rat assessed as diastolic blood pressure at 5 mg/kg, iv measured after 10 mins (reference value: 86.5 to 119.4 mmHg); assay type: functional
# Rattus norvegicus [37] = assay: Cardiotoxicity in Wistar rat assessed as effect on QTC interval time at 5 mg/kg, iv measured after 15 mins (reference value: 136.7 to 146.2 ms); assay type: toxicity, organism-based; conditions: in vivo, 0.25 h
# [38] = molecular target: Adrenergic receptor alpha-2 (Rattus norvegicus) (UniProt P22086+P19328+P22909); assay: Displacement of [3H]-clonidine from adrenergic alpha2 receptor in Wistar rat cortex at 10^-5 M incubated for 25 mins by microbeta liquid scintillation counting analysis
# Sequence of Beta-2 adrenergic receptor (Q8K4Z4 whole entry): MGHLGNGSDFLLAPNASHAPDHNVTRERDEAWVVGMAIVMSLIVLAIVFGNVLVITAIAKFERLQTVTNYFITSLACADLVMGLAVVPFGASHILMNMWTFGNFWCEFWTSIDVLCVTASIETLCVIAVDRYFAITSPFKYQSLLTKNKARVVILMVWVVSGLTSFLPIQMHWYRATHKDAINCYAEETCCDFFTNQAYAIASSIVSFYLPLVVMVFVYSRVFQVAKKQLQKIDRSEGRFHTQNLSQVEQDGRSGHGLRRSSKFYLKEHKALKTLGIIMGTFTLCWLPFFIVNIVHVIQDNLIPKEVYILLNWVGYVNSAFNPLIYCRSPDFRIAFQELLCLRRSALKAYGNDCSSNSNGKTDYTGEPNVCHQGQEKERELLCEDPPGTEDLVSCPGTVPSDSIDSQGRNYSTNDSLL
# Sequence of Beta-1 adrenergic receptor (P18090 whole entry): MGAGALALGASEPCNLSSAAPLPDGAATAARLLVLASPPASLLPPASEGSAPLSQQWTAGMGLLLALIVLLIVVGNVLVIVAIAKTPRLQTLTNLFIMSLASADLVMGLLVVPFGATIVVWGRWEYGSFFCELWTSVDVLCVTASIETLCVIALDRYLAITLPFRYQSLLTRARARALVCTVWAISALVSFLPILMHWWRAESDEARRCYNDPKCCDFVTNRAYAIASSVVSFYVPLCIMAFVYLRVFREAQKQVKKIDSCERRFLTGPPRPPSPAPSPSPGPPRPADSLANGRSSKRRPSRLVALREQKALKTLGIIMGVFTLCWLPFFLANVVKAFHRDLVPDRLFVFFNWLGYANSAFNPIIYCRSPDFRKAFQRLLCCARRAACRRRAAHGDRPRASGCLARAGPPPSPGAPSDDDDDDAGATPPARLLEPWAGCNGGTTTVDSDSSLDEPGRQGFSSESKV
compound,measurement,setting,value
COc1ccccc1OCCNCC(O)COc1cccc2[nH]c3ccccc3c12 (stereo unspecified) [CARVEDILOL],inhibition,Rattus norvegicus [1],Active
same,ED50,Rattus norvegicus [2],1.05 mg/kg
same,inhibition,Blood [3],inactive
same,inhibition,Blood [4],inactive
COc1ccc(CCN(C)CCCC(C#N)(c2ccc(OC)c(OC)c2)C(C)C)cc1OC (stereo unspecified) [VERAPAMIL],inhibition,Rattus norvegicus [5],Dose-dependent effect
same,inhibition,Rattus norvegicus [5]; concentration not given here,95%
same,IC50,[6],32.9 nM
CC(C)NCC(O)COc1cccc2ccccc12 (stereo unspecified) [PROPRANOLOL],ED50,Rattus norvegicus [2],0.36 mg/kg
Cc1cccc2c(=O)c3ccc(OCC(O)CNC(C)(C)C)cc3oc12.Cl (racemic),Time,Rattus norvegicus [7],59.5 ms
same,Activity,Rattus norvegicus [8],126 mmHg
same,Activity,[9],inactive
same,Activity,Rattus norvegicus [10],160 mmHg
same,Kb,[11],655 nM
same,Time,Rattus norvegicus [12],18 ms
same,Time,Rattus norvegicus [13],18.2 ms
same,Activity,Rattus norvegicus [14],144 mmHg
same,Time,Rattus norvegicus [15],18.5 ms
same,inhibition,Rattus norvegicus [16],Active
same,Time,Rattus norvegicus [17],55.5 ms
same,Activity,Rattus norvegicus [18],155.8 mmHg
same,Time,Rattus norvegicus [19],58.5 ms
same,Activity,Rattus norvegicus [20],310 bpm
same,IC50,[21],785 nM
same,Time,Rattus norvegicus [22],139.8 ms
same,Activity,Rattus norvegicus [23],114 mmHg
same,Activity,Rattus norvegicus [24],129.2 mmHg
same,Activity,Rattus norvegicus [25],337 bpm
same,Time,Rattus norvegicus [26],59.5 ms
same,Activity,Rattus norvegicus [27],166.6 mmHg
same,Activity,Rattus norvegicus [28],159.2 mmHg
same,Activity,Rattus norvegicus [29],123.8 mmHg
same,Time,Rattus norvegicus [30],60.5 ms
same,Activity,Rattus norvegicus [31],inactive
same,Time,Rattus norvegicus [32],59 ms
same,IC50,Blood [33],62.7 µM
same,inhibition,Blood [33],Dose-dependent effect
same,Time,Rattus norvegicus [34],135.2 ms
same,Activity,Rattus norvegicus [35],339.2 bpm
same,Activity,Rattus norvegicus [36],125 mmHg
same,Time,Rattus norvegicus [37],138.9 ms
same,Activity,[38],inactive
